For series [1] the following is noted: MTX 1 mg/kg or 50 mg/kg daily, short treatment durations (2-4 days).
From the text: C57BL/6J mice (females, ages 6-16 weeks) were obtained from the UCSF Gnotobiotics core facility (gnotobiotics.ucsf.edu) and housed in gnotobiotic isolators for the duration of each experiment (Class Biologically Clean). […] Housing: Mice were co-housed in some experiments, distributed across multiple cages per treatment group, or individually housed. Individually housed mice were housed in Single Mouse Duplexed Cages (Thoren, Cat #15). Colonization: Mice were colonized with stool from human donors, either a healthy male donor or a treatment-naive (re-MTX) female and male donors with rheumatoid arthritis [as defined by American College of Rheumatology classification criteria, either (Arnett, F. C., et al. (1988), Arthritis Rheum 31, 315-324) or (Aletaha, D., et al. (2010), Arthritis Rheum 62, 2569-2581)]; samples obtained 1 month after starting MTX were used for “post-MTX” transplants. For colonization with a human microbiome, stool was diluted 1:10 g/mL in reduced PBS or saline and homogenized in an anaerobic chamber using pre-equilibrated reagents and supplies. Insoluble material was separated from supernatant by centrifugation at 50 g for 1 minute. Aliquots of supernatant (100-200 μl per mouse) were gavaged into mice. […] Mice were monitored and weighed daily during treatment. […]
For series [2] the following is noted: newly diagnosed RA patients; cited from earlier work.

The values that follow come from US20220160712A1, “METHODS OF TREATING RHEUMATOID ARTHRITIS AND FOR PREDICTING THE RESPONSE TO METHOTREXATE” (CHAN ZUCKERBERG BIOHUB, INC., priority 2020, published 2022).

For the compound `CN(Cc1cnc2nc(N)nc(N)c2n1)c1ccc(C(=O)N[C@@H](CCC(=O)O)C(=O)O)cc1` [MTX, methotrexate], the weight loss entry in series [1] is “minimal weight loss”. Moreover, the “patients with a robust response without escalation of therapy” value in series [2] is roughly 33%.
